Results from publication PMC6429214, “Design, Synthesis and Biological Evaluation of Isoxazole-Based CK1 Inhibitors Modified with Chiral Pyrrolidine Scaffolds” (Molecules, 2019).

Columns and labels:
Test in all cases: 33PanQinase panel
Type in all cases: biochemical
ABL1 = molecular target: T1, ABL1 (Homo sapiens, UniProt P00519); details: ABL1, 1 µM; read-out: Residual Activity (%)
T1 construct: purchased ProQinase
Method: (§1) Figure 5 Dendrogram representation of the selectivity profile of 29d at a concentration of 1 μM in a panel of 320 wild-type kinases (ProQinase, Freiburg, Germany). The residual kinase activity was determined compared to DMSO control. Images were generated using TREEspot Software Tool, DISCOVERX CORPORATION 2010. […]
(§2) Table S2. Selectivity profile of compound 29d. The inhibitor has been screened at a concentration of 1 µM over a panel of 320 wild-type protein kinases by ProQinase GmbH (Freiburg, Germany) using an activity-based radiometric 33PanQinase® assay. Results are presented as percentage of residual kinase activity relative to […]
(§3) control. The final DMSO concentration was 1 % in each reaction-mix. Classification of protein kinase families refers to Manning et al. (Manning, G.; Whyte, D. B.; Martinez, R.; Hunter, T.; Sudarsanam, S. The Protein Kinase Complement of the Human Genome. Science 2002, 298, 1912–1934): AGC = containing PKA, PKG, PKC families; […] = containing Cdk, MAPK, GSK3, CLK families; STE = homologs of yeast sterile 7, sterile 11, sterile 20 kinases; TK = tyrosine kinase; TKL = tyrosine kinase-like.
(§4) Kinase name Kinase family Residual Activity (%)

Aurora-A = molecular target: T2, Aurora-A (Homo sapiens, UniProt O14965); details: read-out: Residual Activity (%)
T2 construct: purchased ProQinase
Method: as §1, §2, §3, §4

Aurora-C = molecular target: T3, Aurora-C (Homo sapiens, UniProt Q9UQB9); details: read-out: Residual Activity (%)
T3 construct: purchased ProQinase
Method: as §1, §2, §3, §4

B-RAF = molecular target: T4, B-RAF (Homo sapiens, UniProt P15056); details: read-out: Residual Activity (%)
T4 construct: purchased ProQinase
Method: as §1, §2, §3, §4

BMPR1A = molecular target: T5, BMPR1A (Homo sapiens, UniProt P36894); details: read-out: Residual Activity (%)
T5 construct: purchased ProQinase
Method: as §1, §2, §3, §4

CK1-gamma1 = molecular target: T6, CK1-gamma1 (Homo sapiens, UniProt Q9HCP0); details: CK1-gamma1, 1 µM; read-out: Residual Activity (%)
T6 construct: purchased ProQinase
Method: as §1, §2, §3, §4

DYRK1A = molecular target: T7, DYRK1A (Homo sapiens, UniProt Q13627); details: read-out: Residual Activity (%)
T7 construct: purchased ProQinase
Method: as §1, §2, §3, §4

DYRK3 = molecular target: T8, DYRK3 (Homo sapiens, UniProt O43781); details: DYRK3, 1 µM; read-out: Residual Activity (%)
T8 construct: purchased ProQinase
Method: as §1, §2, §3, §4

ERBB2 = molecular target: T9, ERBB2 (Homo sapiens, UniProt P04626); details: ERBB2, 1 µM; read-out: Residual Activity (%)
T9 construct: purchased ProQinase
Method: as §1, §2, §3, §4

FGF-R3 = molecular target: T10, FGF-R3 (Homo sapiens, UniProt P22607); details: FGF-R3, 1 µM; read-out: Residual Activity (%)
T10 construct: purchased ProQinase
Method: as §1, §2, §3, §4

FGR = molecular target: T11, FGR (Homo sapiens, UniProt P09769); details: read-out: Residual Activity (%)
T11 construct: purchased ProQinase
Method: as §1, §2, §3, §4

GRK6 = molecular target: T12, GRK6 (Homo sapiens, UniProt P43250); details: GRK6, 1 µM; read-out: Residual Activity (%)
T12 construct: purchased ProQinase
Method: as §1, §2, §3, §4

GSK3-beta = molecular target: T13, GSK3-beta (Homo sapiens, UniProt P49841); details: read-out: Residual Activity (%)
T13 construct: purchased ProQinase
Method: as §1, §2, §3, §4

MAP4K4 = molecular target: T14, MAP4K4 (Homo sapiens, UniProt O95819); details: MAP4K4, 1 µM; read-out: Residual Activity (%)
T14 construct: purchased ProQinase
Method: as §1, §2, §3, §4

MST1 = molecular target: T15, MST1 (Homo sapiens, UniProt Q13043); details: MST1, 1 µM; read-out: Residual Activity (%)
T15 construct: purchased ProQinase
Method: as §1, §2, §3, §4

MST3 = molecular target: T16, MST3 (Homo sapiens, UniProt Q9Y6E0); details: MST3, 1 µM; read-out: Residual Activity (%)
T16 construct: purchased ProQinase
Method: as §1, §2, §3, §4

MYLK2 = molecular target: T17, MYLK2 (Homo sapiens, UniProt Q9H1R3); details: MYLK2, 1 µM; read-out: Residual Activity (%)
T17 construct: purchased ProQinase
Method: as §1, §2, §3, §4

NLK = molecular target: T18, NLK (Homo sapiens, UniProt Q9UBE8); details: read-out: Residual Activity (%)
T18 construct: purchased ProQinase
Method: as §1, §2, §3, §4

PAK3 = molecular target: T19, PAK3 (Homo sapiens, UniProt O75914); details: PAK3, 1 µM; read-out: Residual Activity (%)
T19 construct: purchased ProQinase
Method: as §1, §2, §3, §4

PAK6 = molecular target: T20, PAK6 (Homo sapiens, UniProt Q9NQU5); details: PAK6, 1 µM; read-out: Residual Activity (%)
T20 construct: purchased ProQinase
Method: as §1, §2, §3, §4

PBK = molecular target: T21, PBK (Homo sapiens, UniProt Q96KB5); details: read-out: Residual Activity (%)
T21 construct: purchased ProQinase
Method: as §1, §2, §3, §4

PIM1 = molecular target: T22, PIM1 (Homo sapiens, UniProt P11309); details: PIM1, 1 µM; read-out: Residual Activity (%)
T22 construct: purchased ProQinase
Method: as §1, §2, §3, §4

PKC-epsilon = molecular target: T23, PKC-epsilon (Homo sapiens, UniProt Q02156); details: read-out: Residual Activity (%)
T23 construct: purchased ProQinase
Method: as §1, §2, §3, §4

PKC-eta = molecular target: T24, PKC-eta (Homo sapiens, UniProt P24723); details: read-out: Residual Activity (%)
T24 construct: purchased ProQinase
Method: as §1, §2, §3, §4

PKC-zeta = molecular target: T25, PKC-zeta (Homo sapiens, UniProt Q05513); details: read-out: Residual Activity (%)
T25 construct: purchased ProQinase
Method: as §1, §2, §3, §4

PLK1 = molecular target: T26, PLK1 (Homo sapiens, UniProt P53350); details: PLK1, 1 µM; read-out: Residual Activity (%)
T26 construct: purchased ProQinase
Method: as §1, §2, §3, §4

SGK2 = molecular target: T27, SGK2 (Homo sapiens, UniProt Q9HBY8); details: SGK2, 1 µM; read-out: Residual Activity (%)
T27 construct: purchased ProQinase
Method: as §1, §2, §3, §4

SLK = molecular target: T28, SLK (Homo sapiens, UniProt Q9H2G2); details: read-out: Residual Activity (%)
T28 construct: purchased ProQinase
Method: as §1, §2, §3, §4

TAOK3 = molecular target: T29, TAOK3 (Homo sapiens, UniProt Q9H2K8); details: TAOK3, 1 µM; read-out: Residual Activity (%)
T29 construct: purchased ProQinase
Method: as §1, §2, §3, §4

TEC = molecular target: T30, TEC (Homo sapiens, UniProt P42680); details: read-out: Residual Activity (%)
T30 construct: purchased ProQinase
Method: as §1, §2, §3, §4

VEGF-R3 = molecular target: T31, VEGF-R3 (Homo sapiens, UniProt P35916); details: VEGF-R3, 1 µM; read-out: Residual Activity (%)
T31 construct: purchased ProQinase
Method: as §1, §2, §3, §4

T31 sequence (P35916 25-1363): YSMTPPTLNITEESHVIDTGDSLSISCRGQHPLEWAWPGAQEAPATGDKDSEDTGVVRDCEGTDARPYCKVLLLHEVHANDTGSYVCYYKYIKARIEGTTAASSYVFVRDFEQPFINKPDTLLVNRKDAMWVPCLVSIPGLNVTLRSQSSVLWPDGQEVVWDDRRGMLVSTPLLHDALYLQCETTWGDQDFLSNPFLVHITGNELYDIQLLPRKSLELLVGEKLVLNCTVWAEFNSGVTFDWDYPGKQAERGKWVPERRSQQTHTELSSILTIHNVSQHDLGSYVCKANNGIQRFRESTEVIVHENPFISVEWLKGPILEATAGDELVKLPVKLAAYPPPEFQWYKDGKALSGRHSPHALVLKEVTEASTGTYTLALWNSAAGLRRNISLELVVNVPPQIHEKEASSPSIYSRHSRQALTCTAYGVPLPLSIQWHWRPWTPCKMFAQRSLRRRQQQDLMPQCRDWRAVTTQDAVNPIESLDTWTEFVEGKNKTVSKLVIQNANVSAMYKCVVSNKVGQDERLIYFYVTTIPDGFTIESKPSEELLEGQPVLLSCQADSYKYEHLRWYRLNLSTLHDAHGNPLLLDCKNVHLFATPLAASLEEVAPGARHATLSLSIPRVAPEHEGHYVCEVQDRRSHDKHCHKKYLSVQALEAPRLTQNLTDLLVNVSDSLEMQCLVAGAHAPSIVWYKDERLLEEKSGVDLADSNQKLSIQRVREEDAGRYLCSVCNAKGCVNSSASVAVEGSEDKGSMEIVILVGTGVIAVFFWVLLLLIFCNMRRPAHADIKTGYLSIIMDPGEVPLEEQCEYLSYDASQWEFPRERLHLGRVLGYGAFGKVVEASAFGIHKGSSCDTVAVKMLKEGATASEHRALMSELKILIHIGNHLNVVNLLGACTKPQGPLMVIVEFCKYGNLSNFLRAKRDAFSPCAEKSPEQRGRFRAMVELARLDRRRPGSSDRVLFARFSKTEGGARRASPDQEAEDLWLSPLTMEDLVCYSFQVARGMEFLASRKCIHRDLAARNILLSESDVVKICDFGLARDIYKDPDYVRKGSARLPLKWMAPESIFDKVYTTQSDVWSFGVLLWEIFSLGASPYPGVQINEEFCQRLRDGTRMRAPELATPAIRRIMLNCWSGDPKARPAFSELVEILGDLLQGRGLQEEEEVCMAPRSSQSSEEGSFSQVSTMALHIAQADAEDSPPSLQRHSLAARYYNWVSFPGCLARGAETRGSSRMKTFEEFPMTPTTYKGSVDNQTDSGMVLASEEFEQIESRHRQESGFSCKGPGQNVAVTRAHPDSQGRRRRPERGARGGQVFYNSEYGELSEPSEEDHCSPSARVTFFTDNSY
T20 sequence (Q9NQU5 whole entry): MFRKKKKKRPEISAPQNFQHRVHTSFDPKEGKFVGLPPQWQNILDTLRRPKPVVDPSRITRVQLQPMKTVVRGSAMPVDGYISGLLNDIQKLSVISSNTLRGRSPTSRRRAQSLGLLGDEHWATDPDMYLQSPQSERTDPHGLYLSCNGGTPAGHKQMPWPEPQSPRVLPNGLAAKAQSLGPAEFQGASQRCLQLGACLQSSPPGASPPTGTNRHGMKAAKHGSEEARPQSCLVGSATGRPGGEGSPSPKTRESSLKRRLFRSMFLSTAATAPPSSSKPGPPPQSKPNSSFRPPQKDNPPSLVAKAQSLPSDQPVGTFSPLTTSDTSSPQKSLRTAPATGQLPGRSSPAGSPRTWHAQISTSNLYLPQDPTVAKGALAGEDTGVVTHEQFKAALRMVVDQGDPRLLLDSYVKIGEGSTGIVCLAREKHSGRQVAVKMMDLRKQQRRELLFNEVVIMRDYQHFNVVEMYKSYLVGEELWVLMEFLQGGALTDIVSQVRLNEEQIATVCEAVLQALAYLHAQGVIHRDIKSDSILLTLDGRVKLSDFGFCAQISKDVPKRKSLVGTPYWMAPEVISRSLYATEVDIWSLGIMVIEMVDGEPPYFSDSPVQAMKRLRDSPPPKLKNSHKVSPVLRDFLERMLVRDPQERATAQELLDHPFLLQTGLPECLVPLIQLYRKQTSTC
T24 sequence (P24723 whole entry): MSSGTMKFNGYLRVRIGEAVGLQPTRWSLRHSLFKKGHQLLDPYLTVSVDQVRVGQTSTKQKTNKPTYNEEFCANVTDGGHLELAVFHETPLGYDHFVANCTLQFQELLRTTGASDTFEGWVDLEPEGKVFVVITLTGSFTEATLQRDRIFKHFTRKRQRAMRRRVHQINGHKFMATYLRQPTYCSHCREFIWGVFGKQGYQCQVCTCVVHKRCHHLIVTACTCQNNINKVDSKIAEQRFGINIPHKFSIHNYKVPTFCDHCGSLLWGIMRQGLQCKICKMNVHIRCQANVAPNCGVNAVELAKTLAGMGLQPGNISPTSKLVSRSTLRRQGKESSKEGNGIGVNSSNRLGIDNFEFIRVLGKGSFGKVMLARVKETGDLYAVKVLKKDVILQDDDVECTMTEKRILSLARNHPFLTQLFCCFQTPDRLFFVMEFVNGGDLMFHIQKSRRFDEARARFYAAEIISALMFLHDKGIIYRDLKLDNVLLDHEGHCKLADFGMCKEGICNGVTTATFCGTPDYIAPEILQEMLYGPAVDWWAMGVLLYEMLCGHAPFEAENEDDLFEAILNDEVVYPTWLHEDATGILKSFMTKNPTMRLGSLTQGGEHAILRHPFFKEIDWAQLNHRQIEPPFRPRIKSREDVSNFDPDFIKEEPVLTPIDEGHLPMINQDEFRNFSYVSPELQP
T30 sequence (P42680 whole entry): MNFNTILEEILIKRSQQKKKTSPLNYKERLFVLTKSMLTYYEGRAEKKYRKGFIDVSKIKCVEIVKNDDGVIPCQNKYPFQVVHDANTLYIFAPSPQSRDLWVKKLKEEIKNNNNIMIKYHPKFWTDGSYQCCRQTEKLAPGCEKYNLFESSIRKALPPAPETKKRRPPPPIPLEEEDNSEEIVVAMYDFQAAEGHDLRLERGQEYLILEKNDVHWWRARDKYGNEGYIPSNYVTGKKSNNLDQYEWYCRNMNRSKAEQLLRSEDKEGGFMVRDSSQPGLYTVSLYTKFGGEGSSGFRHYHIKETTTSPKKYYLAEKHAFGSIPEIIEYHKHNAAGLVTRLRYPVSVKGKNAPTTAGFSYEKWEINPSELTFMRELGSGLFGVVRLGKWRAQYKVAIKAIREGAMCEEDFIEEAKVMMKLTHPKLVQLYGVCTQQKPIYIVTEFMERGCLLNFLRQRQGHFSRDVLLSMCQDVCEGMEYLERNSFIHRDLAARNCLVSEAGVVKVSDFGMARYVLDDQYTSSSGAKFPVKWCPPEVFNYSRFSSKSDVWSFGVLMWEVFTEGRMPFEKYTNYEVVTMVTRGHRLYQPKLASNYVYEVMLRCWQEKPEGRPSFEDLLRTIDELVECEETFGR
T29 sequence (Q9H2K8 whole entry): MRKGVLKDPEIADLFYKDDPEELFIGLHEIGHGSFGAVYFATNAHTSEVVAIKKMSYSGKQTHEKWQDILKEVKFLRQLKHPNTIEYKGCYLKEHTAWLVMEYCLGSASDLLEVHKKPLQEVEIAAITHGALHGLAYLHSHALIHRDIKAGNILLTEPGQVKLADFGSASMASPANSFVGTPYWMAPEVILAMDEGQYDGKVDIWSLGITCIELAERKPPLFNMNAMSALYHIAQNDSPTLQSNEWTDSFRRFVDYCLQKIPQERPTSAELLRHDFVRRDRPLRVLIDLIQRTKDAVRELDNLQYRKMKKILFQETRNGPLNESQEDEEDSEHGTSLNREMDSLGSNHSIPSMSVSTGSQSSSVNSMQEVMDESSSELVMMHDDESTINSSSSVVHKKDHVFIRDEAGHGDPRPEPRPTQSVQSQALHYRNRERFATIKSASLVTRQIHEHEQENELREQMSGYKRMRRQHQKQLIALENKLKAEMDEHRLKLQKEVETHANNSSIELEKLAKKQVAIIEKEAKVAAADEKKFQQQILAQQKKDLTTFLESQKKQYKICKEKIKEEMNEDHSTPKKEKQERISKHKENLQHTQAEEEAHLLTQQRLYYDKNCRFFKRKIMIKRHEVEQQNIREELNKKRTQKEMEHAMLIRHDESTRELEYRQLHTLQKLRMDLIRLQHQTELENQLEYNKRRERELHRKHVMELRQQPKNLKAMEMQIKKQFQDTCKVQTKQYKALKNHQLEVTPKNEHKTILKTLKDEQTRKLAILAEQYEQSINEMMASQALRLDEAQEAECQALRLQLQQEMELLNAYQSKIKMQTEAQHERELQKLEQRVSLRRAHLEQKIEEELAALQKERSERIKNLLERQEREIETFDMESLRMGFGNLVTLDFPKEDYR
T15 sequence (Q13043 whole entry): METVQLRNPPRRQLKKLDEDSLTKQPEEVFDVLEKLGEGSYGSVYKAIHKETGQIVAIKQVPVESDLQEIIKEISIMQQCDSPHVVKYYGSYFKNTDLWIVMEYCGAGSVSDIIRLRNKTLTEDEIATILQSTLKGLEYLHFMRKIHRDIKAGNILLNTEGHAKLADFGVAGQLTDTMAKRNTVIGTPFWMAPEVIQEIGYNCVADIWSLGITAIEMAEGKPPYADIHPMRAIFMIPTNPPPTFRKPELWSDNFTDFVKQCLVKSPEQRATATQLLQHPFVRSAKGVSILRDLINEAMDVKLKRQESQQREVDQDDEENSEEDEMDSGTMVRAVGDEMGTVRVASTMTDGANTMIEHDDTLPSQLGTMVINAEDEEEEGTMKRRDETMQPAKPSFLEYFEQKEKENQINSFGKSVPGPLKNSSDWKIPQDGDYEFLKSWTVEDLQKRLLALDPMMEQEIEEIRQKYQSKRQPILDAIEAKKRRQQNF
T21 sequence (Q96KB5 whole entry): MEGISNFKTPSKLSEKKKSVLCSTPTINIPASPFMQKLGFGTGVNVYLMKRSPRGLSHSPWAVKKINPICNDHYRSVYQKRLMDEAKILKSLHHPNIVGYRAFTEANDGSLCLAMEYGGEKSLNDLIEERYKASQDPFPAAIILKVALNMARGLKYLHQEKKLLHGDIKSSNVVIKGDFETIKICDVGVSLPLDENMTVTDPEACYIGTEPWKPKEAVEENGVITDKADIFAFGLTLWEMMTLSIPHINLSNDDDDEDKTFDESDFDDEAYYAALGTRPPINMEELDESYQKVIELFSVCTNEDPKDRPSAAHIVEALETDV

COc1ccc(-c2cc(C(=O)Nc3cc(-c4c(-c5ccc(F)cc5)noc4C(C)C)ccn3)n(CC3NCC(O)C3O)c2)cc1 (stereo not shown) [29d]
remaining activity at 1 µM (ABL1): 95%
remaining activity at 1 µM (Aurora-A): 103%
remaining activity at 1 µM (Aurora-C): 97%
remaining activity at 1 µM (B-RAF): 95%
remaining activity at 1 µM (BMPR1A): 96%
remaining activity at 1 µM (CK1-gamma1): 88%
remaining activity at 1 µM (DYRK1A): 120%
remaining activity at 1 µM (DYRK3): 106%
remaining activity at 1 µM (ERBB2): 121%
remaining activity at 1 µM (FGF-R3): 118%
remaining activity at 1 µM (FGR): 107%
remaining activity at 1 µM (GRK6): 101%
remaining activity at 1 µM (GSK3-beta): 100%
remaining activity at 1 µM (MAP4K4): 83%
remaining activity at 1 µM (MST1): 101%
remaining activity at 1 µM (MST3): 117%
remaining activity at 1 µM (MYLK2): 97%
remaining activity at 1 µM (NLK): 71%
remaining activity at 1 µM (PAK3): 81%
remaining activity at 1 µM (PAK6): 83%
remaining activity at 1 µM (PBK): 89%
remaining activity at 1 µM (PIM1): 94%
remaining activity at 1 µM (PKC-epsilon): 84%
remaining activity at 1 µM (PKC-eta): 113%
remaining activity at 1 µM (PKC-zeta): 123%
remaining activity at 1 µM (PLK1): 98%
remaining activity at 1 µM (SGK2): 101%
remaining activity at 1 µM (SLK): 114%
remaining activity at 1 µM (TAOK3): 96%
remaining activity at 1 µM (TEC): 109%
remaining activity at 1 µM (VEGF-R3): 124%
